Laboratory results: patent US6638972B2, “Chroman and benzofuran derivatives as 5-hydroxytryptamine-6 ligands” (Wyeth, priority 2001, dated 2003)
Counter-ions that a name gives are not always drawn.

Tests used:
[1] = target: T1, human cloned 5-HT6 receptors (Homo sapiens, UniProt P50406); test: 5-HT6 binding affinity ([3H]-LSD displacement, membranes of Hela cells expressing human cloned 5-HT6 receptors); conditions: [3H]-LSD 3.0 nM, Hela cell membranes, 120 min at room temperature; read-out: 5-HT6 Binding Ki
T1 construct: expressed in transfected cells; host or cells: HeLa cells (membrane preparation)
Experimental: The affinity of test compounds for the serotonin 5-T6 receptor is evaluated in the following manner. Cultured Hela cells expressing human cloned 5-HT6 receptors are harvested and centrifuged at low speed (1,000×g) for 10.0 min to remove the culture media. The harvested cells are suspended in half volume of fresh physiological phosphate buffered saline solution and recentrifuged at the same speed. This operation is repeated. The collected cells are then homogenized in ten volumes of 50 mM Tris.HCl (pH 7.4) and 0.5 mM EDTA. The homogenate is centrifuged at 40,000×g for 30.0 min and the precipitate is collected. The obtained pellet is resuspended in 10 volumes of Tris.HCl buffer and recentrifuged at the same speed. The final pellet is suspended in a small volume of Tris.HCl buffer and the tissue protein content is determined in aliquots of 10-25 μl volumes. Bovine Serum Albumin is used as the standard in the protein determination according to the method described in Lowry et al., J. Biol. Chem., 193:265 (1951). The volume of the suspended cell membranes is adjusted to give a tissue protein concentration of 1.0 mg/ml of suspension. The prepared membrane suspension (10 times concentrated) is aliquoted in 1.0 ml volumes and stored at −70° C. until used in subsequent binding experiments.
Binding experiments are performed in a 96 well microtiter plate format, in a total volume of 200 μl. […] The test compounds are added in 20.0 μl volume.
The reaction is allowed to proceed in the dark for 120 min at room temperature, at which time, the bound ligand-receptor complex is filtered off on a 96 well unifilter with a Packard Filtermate® 196 Harvester. The bound complex caught on the filter disk is allowed to air dry and the radioactivity is measured in a Packard TopCount® equipped with six photomultiplier detectors, after the addition of 40.0 μl Microscint®-20 scintillant to each shallow well. The unifilter plate is heat-sealed and counted in a PackardTopCount® with a tritium efficiency of 31.0%.
Binding in the presence of varying concentrations of test compound is expressed as a percentage of specific binding in the absence of test compound. The results are plotted as log % bound versus log concentration of test compound. […] A linear regression line of data points is plotted, from which the IC50 value is determined and the Ki value is determined based upon the following equation: […]
where L is the concentration of the radioactive ligand used and KD is the dissociation constant of the ligand for the receptor, both expressed in nM.

T1 sequence (P50406 whole entry): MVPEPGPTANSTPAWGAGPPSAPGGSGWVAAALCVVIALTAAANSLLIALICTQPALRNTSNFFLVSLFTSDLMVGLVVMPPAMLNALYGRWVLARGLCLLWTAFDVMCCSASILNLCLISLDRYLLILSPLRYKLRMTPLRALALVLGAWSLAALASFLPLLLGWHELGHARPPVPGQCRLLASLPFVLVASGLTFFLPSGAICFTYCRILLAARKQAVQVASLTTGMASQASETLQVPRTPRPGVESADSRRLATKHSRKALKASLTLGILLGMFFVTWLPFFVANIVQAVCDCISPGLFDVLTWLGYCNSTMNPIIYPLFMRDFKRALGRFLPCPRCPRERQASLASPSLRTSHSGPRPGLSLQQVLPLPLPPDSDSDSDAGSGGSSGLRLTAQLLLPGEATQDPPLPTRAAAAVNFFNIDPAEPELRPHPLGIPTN

Structure (SMILES) | melting point [°C] | Ki [1] [nM]
OCCCNCC1CCc2ccc(OCC3CCCCC3)cc2O1 (stereo not shown) (as salt: hydrochloride) [Example 13, 3-[(7-cyclohexylmethoxy-chroman-2-ylmethyl)-amino]-propan-1-ol] | 159 to 160 | –
OCCCNCC1CCc2ccc(OCc3ccccc3Cl)cc2O1 (stereo not shown) (as salt: hydrochloride) [Example 14, 3-{[7-(2-chloro-benzyloxy)-chroman-2-ylmethyl]-amino}-propan-1-ol] | 114 to 115 | –
OCCCNCC1CCc2ccc(Oc3ccccc3)cc2O1 (stereo not shown) (as salt: hydrochloride) [Example 15, 3-[(7-phenoxy-chroman-2-ylmethyl)-amino]-propan-1-ol] | 178 to 179 | –
Cc1nc(COc2ccc3c(c2)OC(CNCCCO)CC3)cs1 (stereo not shown) (as salt: salt) [Example 23, 3-{[7-(2-methyl-thiazol-4-ylmethoxy)-chroman-2-ylmethyl]-amino}-propan-1-ol] | 94 to 102 | –
OC[C@H](CSCc1ccccc1)NCC1CCc2ccc(OCc3ccccc3)cc2O1 (stereo partly drawn) [Example 37, (2R)-2-[(7-benzyloxy-chroman-2-ylmethyl)-amino]-3-benzylsulfanyl-propan-1-ol] | 59 to 65 | 303
OCCNC[C@H]1CCc2ccc(OCc3ccccc3)cc2O1 [Example 44] | 196 to 197 | 10
OCCCNCC1Cc2ccc(OCc3ccccc3)cc2O1 (stereo not shown) [Example 53, 3-[(6-benzyloxy-2,3-dihydro-benzofuran-2-ylmethyl)-amino]-propan-1-ol] | 125 to 127 | 339
c1ccc(CNCc2cc3ccc(OCc4ccccc4)cc3o2)cc1 [Example 54, benzyl-(6-benzyloxy-benzofuran-2-ylmethyl)-amine] | 198 to 200 | 1350
OCCCNCc1cc2ccc(OCc3ccccc3)cc2o1 [Example 55, 3-[(6-benzyloxy-benzofuran-2-ylmethyl)-amino]-propan-1-ol] | 145 to 147 | 1180

Further lines, results first:

melting point [°C] | Ki [1] [nM] | Structure (SMILES)
138 to 139 | – | c1ccc(CCCNCC2CCc3ccc(OCc4ccccc4)cc3O2)cc1 (stereo not shown) (as salt: hydrochloride) [Example 10, (7-benzyloxy-chroman-2-ylmethyl)-(3-phenyl-propyl)-amine]
138 to 139 | – | c1ccc(COCCCNCC2CCc3ccc(OCc4ccccc4)cc3O2)cc1 (stereo not shown) (as salt: hydrochloride) [Example 11, (7-benzyloxy-chroman-2-ylmethyl)-(3-benzyloxy-propyl)-amine]
150 to 151 | – | CCCCNCC1CCc2ccc(OCc3ccccc3)cc2O1 (stereo not shown) (as salt: hydrochloride) [Example 12, (7-benzyloxy-chroman-2-ylmethyl)-butyl-amine]
118 to 120 | 157 | O=[N+]([O-])c1ccc(OCCCNCC2CCc3ccc(OCc4ccccc4)cc3O2)cc1 (stereo not shown) [Example 32, (7-benzyloxy-chroman-2-ylmethyl)-[3-(4-nitro-phenoxy)-propyl]-amine]
82 to 87 | 69 | O=[N+]([O-])c1cccc(OCCCNCC2CCc3ccc(OCc4ccccc4)cc3O2)c1 (stereo not shown) [Example 33, (7-benzyloxy-chroman-2-ylmethyl)-[3-(3-nitro-phenoxy)-propyl]-amine]
110 to 116 | 192 | Clc1cccc(OCCCNCC2CCc3ccc(OCc4ccccc4)cc3O2)c1 (stereo not shown) [Example 34, (7-benzyloxy-chroman-2-ylmethyl)-[3-(3-chloro-phenoxy)-propyl]-amine]
63 to 68 | 29 | O=c1ccc2ccc(OCCCNCC3CCc4ccc(OCc5ccccc5)cc4O3)cc2o1 (stereo not shown) [Example 35, 7-{3-[(7-benzyloxy-chroman-2-ylmethyl)-amino]-propoxy}-chromen-2-one]
92 to 95 | 43 | O=c1ccc2ccc(OCCCNCC3CCc4cc(Cl)c(OCc5ccccc5)cc4O3)cc2o1 (stereo not shown) [Example 36, 7-{3-[(7-benzyloxy-6-chloro-chroman-2-ylmethyl)-amino]-propoxy}-chromen-2-one]
119 | 9 | OCCCNC[C@H]1CCc2ccc(OCc3ccccc3)cc2O1 [Example 45, 3-{[(2R)-7-benzyloxy-chroman-2-ylmethyl]-amino}-propan-1-ol]
128 to 129 | 25 | COCCCNC[C@H]1CCc2ccc(OCc3ccccc3)cc2O1 [Example 46, [(2R)-7-benzyloxy-chroman-2-ylmethyl]-(3-methoxy-propyl)-amine]
